From US12213482B2, “Fungicide enhancers effective for treating plants infected with fungal pathogens” (Board of Regents, The University of Texas System, priority 2015, dated 2025)

Legend:
[1] = test system: Colletotrichum graminicola; test: Antifungal susceptibility disk test, fungicide disk plus apyrase inhibitor in plate; format: cell-based; conditions: inhibitor 65 μM, 30° C., 7 days; for inhibitory effect on the growth of C. graminicola compared to copper octanoate alone: combined with copper octanoate (285 mM) disk, FIG. 3A; for inhibitory effect on the growth of C. graminicola compared to myclobutanil alone: combined with myclobutanil (53.6 mM) disk, FIG. 3B
Procedure: Copper Octanoate, 3B. Propiconazole, and 3C. Myclobutanil against the pathogenic fungi Colletotrichum graminicola. […] The equivalent volume of dimethylsulphoxide (DMSO) was added as a control. The studies were repeated two times with similar results. Error bars indicate standard deviations (n=5). The significances of the potency of fungicides are indicated: *** (Student's t-test, P<0.001; **(Student's t-test, P<0.01) or *(Student's t-test, P<0.05). The plant pathogenic fungal strains Botrytis cinerea, Colletotrichum graminicola, Fusarium oxysporum, Sclerotiana sclerotiorum and Verticillium dahliae were obtained from the Institute for Plant Genomics & Biotechnology, Texas A & M University, USA Potato dextrose agar (PDA, Sigma-Aldrich) was routinely used for the growth of different pathogenic fungal strain. Ectophosphatase inhibitors NGXT191 (AI.1), AI.10, NGXT1913 (AI.13), and AI. 15 were used dal this study. The fungicides copper octanoate (C16H30CuO4), myclobutanil (C15H17ClN4) and propiconazole (C15H17Cl2N3O2) were used. The concentrations of these compounds used were copper octanoate (285 mM), myclobutanil (53.6 mM) and propiconazole (418 mM). Standard antifungal susceptibility disk tests were performed to determine any potentiating effect of ectophosphatase inhibitors on the growth of pathogenic fungus. The pathogenic fungus wild-type strains were plated on PDA medium with paper-disks containing, fungicides at the center of the plate. […] Plates were incubated at 30° C. for 7-days (C. graminicola and S. sclerotiorum) or 12-days (B. cinerea, F. oxysporum and V. dahliae), depending on the growth rate of the fungi. Plates were photographed, and the zone of fungal growth inhibition was measured by using IMAGE J™ software (NIH, USA). All the tests were performed with 5 replicates. The studies were performed two times. Results were analyzed for significance using Student T-tests.

[2] = test system: Verticillium dahliae; test: as above; format: cell-based; conditions: inhibitor 65 μM, 30° C., 12 days; for inhibitory effect on the growth of V. dahliae compared to copper octanoate alone: combined with copper octanoate (285 mM) disk, FIG. 6A; for inhibitory effect on the growth of V. dahliae compared to propiconazole alone: combined with propiconazole (418 mM) disk, FIG. 6C
Procedure: Copper Octanoate, 6B. Propiconazole, and 6C. Myclobutanil against the pathogenic fungi Verticillium dahliae. […] The equivalent volume of dimethylsulphoxide (DMSO) was added as a control. The studies were repeated two times with similar results. Error bars indicate standard deviations (n=5). The significances of the potency of fungicides are indicated: *** […]); **(Student's t-test, P<0.01) or *(Student's t test, P<0.05). The plant pathogenic fungal strains Botrytis cinerea, Colletotrichum graminicola, Fusarium oxysporum, Sclerotiana sclerotiorum and Verticillium dahliae were obtained from the Institute for Plant Genomics & Biotechnology, Texas A & M University, USA Potato dextrose agar (PDA, Sigma-Aldrich) was routinely used for the growth of different pathogenic fungal strain. Ectophosphatase inhibitors NGXT191 (AI.1), AI.10, NGXT1913 (AI.13), and AI. 15 were used dal this study. The fungicides copper octanoate (C16H30CuO4), myclobutanil (C15H17ClN4) and propiconazole (C15H17Cl2N3O2) were used. The concentrations of these compounds used were copper octanoate (285 mM), myclobutanil (53.6 mM) and propiconazole (418 mM). Standard antifungal susceptibility disk tests were performed to determine any potentiating effect of ectophosphatase inhibitors on the growth of pathogenic fungus. The pathogenic fungus wild-type strains were plated on PDA medium with paper-disks containing, fungicides at the center of the plate. […] Plates were incubated at 30° C. for 7-days (C. graminicola and S. sclerotiorum) or 12-days (B. cinerea, F. oxysporum and V. dahliae), depending on the growth rate of the fungi. Plates were photographed, and the zone of fungal growth inhibition was measured by using IMAGE J™ software (NIH, USA). All the tests were performed with 5 replicates. The studies were performed two times. Results were analyzed for significance using Student T-tests.

O=C(Nc1cccc([N+](=O)[O-])c1)c1cccc(S(=O)(=O)Nc2ccc(Br)cc2)c1 [AI.13, 3-(N-(4-bromophenyl)sulfamoyl)-N-(3-nitrophenyl)benzamide]
significantly greater inhibitory effect: inhibitory effect on the growth of C. graminicola compared to copper octanoate alone [1] | inhibitory effect on the growth of C. graminicola compared to myclobutanil alone [1] | inhibitory effect on the growth of V. dahliae compared to copper octanoate alone [2]

C/C(=N\NC(=O)c1cccc(C)c1)c1ccc2ccccc2c1 [AI.15, (E)-3-methyl-N′-(1-(naphthalen-2-yl)ethylidene)benzohydrazide]
significantly greater inhibitory effect: inhibitory effect on the growth of C. graminicola compared to myclobutanil alone [1] | inhibitory effect on the growth of V. dahliae compared to copper octanoate alone [2] | inhibitory effect on the growth of V. dahliae compared to myclobutanil alone ([2]; combined with myclobutanil (53.6 mM) disk, FIG. 6B) | inhibitory effect on the growth of V. dahliae compared to propiconazole alone [2]

Cc1cccc(NS(=O)(=O)c2ccc(-c3ccccc3)cc2)c1 [AI.1, N-(m-tolyl)-[1,1′-biphenyl]-4-sulfonamide]
significantly greater inhibitory effect: inhibitory effect on the growth of C. graminicola compared to copper octanoate alone [1] | inhibitory effect on the growth of C. graminicola compared to myclobutanil alone [1] | inhibitory effect on the growth of V. dahliae compared to copper octanoate alone [2]

CCCCCCCSC(=O)c1cc2ccccc2oc1=O [AI.10, S-heptyl 2-oxo-2H-chromene-3-carbothioate]
significantly greater inhibitory effect: inhibitory effect on the growth of C. graminicola compared to myclobutanil alone [1] | inhibitory effect on the growth of V. dahliae compared to copper octanoate alone [2] | inhibitory effect on the growth of V. dahliae compared to propiconazole alone [2]
